Source: publication PMC10388327, “Dual Piperidine-Based Histamine H3 and Sigma-1 Receptor Ligands in the Treatment of Nociceptive and Neuropathic Pain” (Journal of Medicinal Chemistry, 2023)
Counter-ions that a name gives are not always drawn. Like-named read-outs stand apart in the source and are kept apart here.

Columns and labels:
[1] = tested on: sigma-1 receptor (σ1R); assay: σ1R radioligand binding ([3H](+)-pentazocine); parameters: species or system guinea pig; details: ratio of σ2R Ki to σ1R Ki
[2] = target: T1, sigma-1 receptor (σ1R) (Cavia porcellus, UniProt Q60492); assay: σ1R radioligand binding ([3H](+)-pentazocine); parameters: species or system guinea pig; details: read-out: σ1R Ki [nM] x̄ [CI 95%]; mean [CI 95%]
T1 construct: The thawed membrane preparation of the guinea pig brain cortex was incubated; from tissue; host or cells: male Dunkin-Hartley guinea pig brain cortex membranes
T1 sequence (Q60492 whole entry): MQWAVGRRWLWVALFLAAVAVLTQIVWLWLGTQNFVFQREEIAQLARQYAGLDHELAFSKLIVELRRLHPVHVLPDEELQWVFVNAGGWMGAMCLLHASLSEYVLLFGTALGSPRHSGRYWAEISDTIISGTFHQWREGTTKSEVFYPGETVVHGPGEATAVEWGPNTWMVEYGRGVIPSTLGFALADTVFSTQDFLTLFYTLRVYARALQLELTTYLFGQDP

[3] = target: T2, human recombinant histamine H3R (Homo sapiens, UniProt Q9Y5N1); assay: hH3R radioligand binding ([3H]Nα-methylhistamine depletion assay); details: read-out: hH3R Ki [nM] x̄ [CI 95%]; mean [CI 95%]; HEK-293 cells
T2 construct: expressed in transfected cells
T2 sequence (Q9Y5N1 whole entry): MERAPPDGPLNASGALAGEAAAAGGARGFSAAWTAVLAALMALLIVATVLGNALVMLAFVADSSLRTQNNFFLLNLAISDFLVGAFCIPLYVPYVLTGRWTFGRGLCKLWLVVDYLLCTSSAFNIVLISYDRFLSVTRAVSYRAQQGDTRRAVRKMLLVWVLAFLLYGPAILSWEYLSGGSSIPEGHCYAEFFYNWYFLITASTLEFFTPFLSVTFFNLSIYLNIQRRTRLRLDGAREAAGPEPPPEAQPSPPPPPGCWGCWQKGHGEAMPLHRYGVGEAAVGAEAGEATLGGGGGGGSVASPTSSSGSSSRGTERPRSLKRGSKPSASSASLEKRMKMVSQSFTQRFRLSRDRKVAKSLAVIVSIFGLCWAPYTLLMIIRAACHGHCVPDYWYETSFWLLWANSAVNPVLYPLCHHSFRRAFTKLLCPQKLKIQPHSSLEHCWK

[4] = target: T3, sigma-2 receptor (σ2R) (Rattus norvegicus, UniProt Q5U3Y7); assay: σ2R radioligand binding ([3H]DTG); details: read-out: σ2R Ki [nM] x̄ [CI 95%]; mean [CI 95%]
T3 construct: The thawed membrane preparation of rat liver was incubated; from tissue; host or cells: Sprague-Dawley rat liver membranes
T3 sequence (Q5U3Y7 1-176): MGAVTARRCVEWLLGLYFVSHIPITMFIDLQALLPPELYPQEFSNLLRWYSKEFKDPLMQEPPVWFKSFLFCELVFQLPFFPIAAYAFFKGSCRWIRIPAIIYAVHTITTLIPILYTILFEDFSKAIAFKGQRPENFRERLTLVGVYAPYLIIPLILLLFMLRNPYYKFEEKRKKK

[5] = pKa determination by potentiometric titration; assay type: physicochemical; details: for pKa: aqueous solution, experimental, potentiometric titration
Method: In addition, we tested the amino alcohol fragments of these compounds to carefully monitor the influence of individual protonated nitrogen atoms on the obtained pKa values (Figure 4). […] Based on a previously modified potentiometric procedure,[27],[28] a series of titrations were performed, and the pKa values were determined using the Kostrowicki and Liwo algorithm.[29],[30] […] That explains the surprising result of free base crystallization attempts where iodide salt was obtained instead of the neutral form. On the other hand, in the same environment, KSK94 exists in two forms: the monoprotonated form [HL^+] (20.56%) and the free ligand [L] (77.72%, Figure 5). […] KSK68 can be characterized as a basic ligand with pKa1 = 4.9 (pyridine N) and pKa2 = 8.4 (piperidine N). The pKa values are consistent with those determined by the same procedure for the corresponding amino alcohol 3-(4-(pyridin-4-yl)piperidin-1-yl)propan-1-ol (Figure 4). […] A similarly low pKa2 value for the N7 piperazine nitrogen atom was also determined for the corresponding amino alcohol 3-(4-(pyridin-4-yl)piperazin-1-yl)propan-1-ol (Figure 4), which is in agreement with the value obtained for 1-phenyl-4-methyl piperazine reported in the literature.[31] […] The lowest value was determined for 4-nitrophenyl, and the highest was for 2-methylphenyl derivatives.[32]
The potentiometric microtitration was performed in a thermostated 20 mL cell using a CerkoLab microtitration unit fitted with a pH electrode (Hydromet ERH-13-6). The electrode was calibrated with the use of buffer solutions: pH = 4.00, 7.00, and 10.00. Titrant T (0.1 M KOH) was standardized according to the general analytical procedure and protected from carbon dioxide. Double distilled water with a conductivity of about 0.18 mS/cm was used to prepare all aqueous solutions. DMSO (HPLC grade, 99.5%) was supplied by Sigma Aldrich. The concentration of the titrant solution (D) was 0.0025–0.005 M. The solubilization procedure was follows: The appropriate amount of KSK compound was dissolved in 1 mL 0.1 M HCl and 1 mL DMSO to prepare a 25 mL stock solution. The developed solubilization system can be recommended for poorly soluble derivatives. The analytical procedure was a follows: volume V0 = 4.5 mL of titrant D was titrated with 0.1 M titrant T using the CerkoLab System equipped with a 5 mL syringe pump.

[6] = Figure 5, species distribution from titration curves
[7] = aqueous solution at physiological pH

| σ2/σ1 ratio [1] | Ki [2] [nM] | Ki [3] [nM] | Ki [4] [nM] | Structure (SMILES) | other results |
| --- | --- | --- | --- | --- | --- |
| 5.7 | 18 | 2.7 | 103 | c1ccc(Oc2ccc(OCCCN3CCCCC3)cc2)cc1 [Compound 6, 1-(3-(4-Phenoxyphenoxy)propyl)piperidine Oxalate] |  |
| 8.5 | 5.5 |  | 47 | c1ccc(Cc2ccc(OCCCN3CCCCC3)cc2)cc1 [Compound 8, 1-(3-(4-Benzylphenoxy)propyl)piperidine Oxalate] |  |
| 1.7 | 28 |  | 47 | N#Cc1ccc(-c2ccc(OCCCN3CCCCC3)cc2)cc1.O=C(O)C(=O)O [Compound 5, 4′-(3-(Piperidin-1-yl)propoxy)-[1,1′-biphenyl]-4-carbonitrile Oxalate] |  |
| 3.6 | 7.6 |  | 27 | CC(C)(C)c1ccc(OCCCCN2CCN(c3cnccn3)CC2)cc1 [Compound 16, 2-(4-(4-(4-(tert-Butyl)phenoxy)butyl)piperazin-1-yl)pyrazine Oxalate] |  |
| 3.5 | 2.8 | 76.1 | 9.9 | c1ccc(Cc2ccc(OCCCN3CCC(c4ccncc4)CC3)cc2)cc1 [Compound 15, 4-(1-(3-(4-Benzylphenoxy)propyl)piperidin-4-yl)pyridine Oxalate] |  |
| 8.8 | 3.3 | 69 | 29 | c1ccc(Nc2ccc(OCCCN3CCC(c4ccncc4)CC3)cc2)cc1 [Compound 14, N-Phenyl-4-(3-(4-(pyridin-4-yl)piperidin-1-yl)propoxy)aniline Oxalate] |  |
| 6.7 | 2.4 | 10.3 | 16 | CC1CCN(CCCOc2ccc(-c3ccccc3)cc2)CC1 [Compound 2, 1-(3-([1,1′-Biphenyl]-4-yloxy)propyl)-4-methylpiperidine Oxalate] |  |
|  |  |  |  | OCCCN1CCN(c2ccncc2)CC1 [3-(4-(pyridin-4-yl)piperazin-1-yl)propan-1-ol, reference compound] | pKa ([5]; read-out: pKa1): 6.1; pKa ([5]; read-out: pKa2): 1; pKa ([5]; read-out: pKa3): 8.82 |
|  |  |  |  | OCCCN1CCCCC1 [3-(piperidin-1-yl)propan-1-ol, reference compound] | pKa ([5]; read-out: pKa): 9.73 |
|  |  |  |  | OCCCN1CCNCC1 [3-(piperazin-1-yl)propan-1-ol, reference compound] | pKa ([5]; read-out: pKa1): 4.52; pKa ([5]; read-out: pKa2): 9.14 |
| 0.7 | 5.6 | 24.2 | 4 | c1ccc(Oc2ccc(OCCCN3CCC(c4ccncc4)CC3)cc2)cc1 [Compound 13, 4-(1-(3-(4-Phenoxyphenoxy)propyl)piperidin-4-yl)pyridine Oxalate] |  |
| 0.3 | 95 | 22 | 33 | c1ccc(-c2ccc(OCCCCN3CCCCC3)cc2)cc1 [Compound 9, 1-(4-([1,1′-Biphenyl]-4-yloxy)butyl)piperidine Oxalate] |  |
|  |  |  |  | OCCCN1CCC(c2ccncc2)CC1 [3-(4-(pyridin-4-yl)piperidin-1-yl)propan-1-ol, reference compound] | pKa ([5]; read-out: pKa1): 4.91; pKa ([5]; read-out: pKa2): 8.84 |
|  |  |  |  | N#Cc1ccc(-c2ccc(OCCCN3CCN(c4ccncc4)CC3)cc2)cc1 [KSK94] | pK of equilibrium H2L+2 = H+ + HL+ [5, 6]: 6.25; pK of equilibrium HL+ = H+ + L0 [5, 6]: 6.65; free ligand [L] [5, 7]: 77.72%; monoprotonated form [HL+] [5, 7]: 20.56%; pKa ([5]; read-out: pKa1): 6.25; pKa ([5]; read-out: pKa2): ~1; pKa ([5]; read-out: pKa3): 6.65 |

| Structure (SMILES) | σ2/σ1 ratio [1] | Ki [2] [nM] | Ki [3] [nM] | Ki [4] [nM] | other results |
| --- | --- | --- | --- | --- | --- |
| CC1CCCN(CCCOc2ccc(-c3ccccc3)cc2)C1 (centres unmarked) [Compound 1, 1-(3-([1,1′-Biphenyl]-4-yloxy)propyl)-3-methylpiperidine Oxalate] | 11.3 | 1.5 | 31 | 17 |  |
| c1ccc(-c2ccc(OCCCN3CCCC3)cc2)cc1 [Compound 4, 1-(3-([1,1′-Biphenyl]-4-yloxy)propyl)pyrrolidine Oxalate] | 2.7 | 24 | 19.5 | 65 |  |
